For the test, the target named is T1, soluble guanylate cyclase (sGC) (Homo sapiens, UniProt Q02108+Q02153).
T1 construct: endogenously expressing soluble guanylate cyclase (sGC); endogenous in cells; host or cells: HEK293
T1 sequence (Q02153 1-619): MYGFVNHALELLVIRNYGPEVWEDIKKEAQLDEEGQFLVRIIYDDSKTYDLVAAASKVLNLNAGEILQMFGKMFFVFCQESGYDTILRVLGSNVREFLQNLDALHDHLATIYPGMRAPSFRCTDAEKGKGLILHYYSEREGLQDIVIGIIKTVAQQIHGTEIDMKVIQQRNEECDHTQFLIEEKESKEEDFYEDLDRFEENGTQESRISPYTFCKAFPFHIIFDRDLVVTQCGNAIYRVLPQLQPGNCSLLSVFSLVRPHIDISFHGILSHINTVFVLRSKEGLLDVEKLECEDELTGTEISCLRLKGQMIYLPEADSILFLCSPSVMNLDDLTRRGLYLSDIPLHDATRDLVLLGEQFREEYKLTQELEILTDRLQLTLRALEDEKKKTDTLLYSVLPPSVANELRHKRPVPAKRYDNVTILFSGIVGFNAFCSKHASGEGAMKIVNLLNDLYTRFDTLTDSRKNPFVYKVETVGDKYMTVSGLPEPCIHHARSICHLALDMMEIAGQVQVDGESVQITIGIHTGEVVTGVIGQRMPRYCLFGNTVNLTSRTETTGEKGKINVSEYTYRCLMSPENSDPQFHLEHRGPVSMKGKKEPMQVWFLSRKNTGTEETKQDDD
T1 sequence (Q02108 1-690): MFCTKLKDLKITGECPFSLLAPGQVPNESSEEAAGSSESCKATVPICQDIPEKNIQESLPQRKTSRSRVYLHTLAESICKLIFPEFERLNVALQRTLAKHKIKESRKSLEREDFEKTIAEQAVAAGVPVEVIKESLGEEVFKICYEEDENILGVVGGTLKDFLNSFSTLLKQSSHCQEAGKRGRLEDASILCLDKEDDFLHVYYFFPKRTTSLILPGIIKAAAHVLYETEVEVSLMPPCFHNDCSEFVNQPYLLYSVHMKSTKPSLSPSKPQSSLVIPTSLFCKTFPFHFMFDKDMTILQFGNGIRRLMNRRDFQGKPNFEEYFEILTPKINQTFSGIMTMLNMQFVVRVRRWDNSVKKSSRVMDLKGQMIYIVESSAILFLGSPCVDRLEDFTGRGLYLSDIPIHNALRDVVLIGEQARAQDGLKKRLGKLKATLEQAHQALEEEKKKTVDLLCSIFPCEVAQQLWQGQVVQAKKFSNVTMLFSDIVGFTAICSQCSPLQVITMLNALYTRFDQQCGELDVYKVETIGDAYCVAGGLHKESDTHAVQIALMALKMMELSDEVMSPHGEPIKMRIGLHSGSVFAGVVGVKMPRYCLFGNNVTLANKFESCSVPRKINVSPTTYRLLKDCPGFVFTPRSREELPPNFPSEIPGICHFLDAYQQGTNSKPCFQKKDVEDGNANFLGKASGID
In words: sGC-HEK-cGMP assay. The test is classed as cell-based. To be noted: HEK293 cells, 10 min incubation, intracellular cGMP by LC/MS; for Increase in cGMP Concentration Tested at 10 μM in HEK Assay: test compound 10 μM; for Increase in cGMP Concentration Tested at 30 μM in HEK Assay: test compound 30 μM. The protocol: Human embryonic kidney cells (HEK293), endogenously expressing soluble guanylate cyclase (sGC), were used to evaluate the activity of test compounds. Compounds stimulating the sGC receptor should cause an increase in the intracellular concentration of cGMP. […] Cells were then incubated for 15 minutes at 37° C. with 0.5 mM 3-isobutyl-1-methylxanthine (2004). Test article was then added to the assay mixture (2 μL) and incubated at 37° C. for 10 minutes. After the 10 minute incubation, the assay mixture was aspirated and 0.1M HCl (2004) was added to the cells. The plate was incubated at 4° C. for 30 minutes in the 0.1M HCl to stop the reaction and lyse the cells. The plates were then centrifuged at 1,200 g for 5 minutes at room temperature. Supernatants were collected and transferred to a new flat bottom 96 well plate for analysis. Vehicle controls were carried out using DMSO (1%). A known sGC stimulator, BAY 41-2272, was used as the positive control.
Samples were diluted with an equal volume of 1 M Ammonium Acetate (pH 7) to neutralize samples for better chromatography. A 2×cGMP standard curve was prepared in 0.1 M HCl and then diluted with an equal volume of 1 M Ammonium Acetate, with the following final concentrations in nM: 1024, 512, 256, 128, 64, 32, 16, 8, 4, 2, 1.
cGMP concentrations were determined from each sample using the LC/MS conditions (Table 2 below) and calculated standard curve. EC50 values were calculated from concentration-response curves generated with GraphPad Prism Software.

With `CC1(C)C=Cc2c(c(-c3ncccn3)nn2Cc2ccccc2F)C1` [Compound I-29], the “Increase in cGMP Concentration Tested at 10 μM in HEK Assay” value (“Increase … at 10 μM in HEK Assay” below) is listed as “A (A represents no increase or an increase ranging from more than 0 fold to less than 5 fold)” and the “Increase in cGMP Concentration Tested at 30 μM in HEK Assay” value (from here on “Increase … at 30 μM in HEK Assay”) is “B (B represents an increase ranging from 5 fold to less than 10 fold)”.
On to `Nc1nc(-c2nn(Cc3ccccc3F)c3c2CCCC3)ncc1-c1ccncc1` [Compound I-27], for which the “Increase … at 10 μM in HEK Assay” value is “A (A represents no increase or an increase ranging from more than 0 fold to less than 5 fold)” and the “Increase … at 30 μM in HEK Assay” value was “A (A represents no increase or an increase ranging from more than 0 fold to less than 5 fold)”.
Regarding `CC1(C)Cc2c(c(-c3ncccn3)nn2Cc2ccccc2F)C(O)C1` (stereo not drawn) [Compound I-32], the “Increase … at 10 μM in HEK Assay” value is recorded as “A (A represents no increase or an increase ranging from more than 0 fold to less than 5 fold)” and the “Increase … at 30 μM in HEK Assay” value was “A (A represents no increase or an increase ranging from more than 0 fold to less than 5 fold)”.
Take `Nc1nc(-c2nn(Cc3ccccc3F)c3c2CCCC3)nc(N)c1NC(=O)OCCCl` [Compound I-25]: the “Increase … at 10 μM in HEK Assay” value is on record as “A (A represents no increase or an increase ranging from more than 0 fold to less than 5 fold)” and the “Increase … at 30 μM in HEK Assay” value is “B (B represents an increase ranging from 5 fold to less than 10 fold)”.
The corresponding values for `CS(=O)(=O)N1CCc2c(c(-c3ncccn3)nn2Cc2ccccc2F)C1` [Compound I-51, 1-(2-fluorobenzyl)-5-(methylsulfonyl)-3-(pyrimidin-2-yl)-4,5,6,7-tetrahydro-1H-pyrazolo[4,3-c]pyridine] are “A (A represents no increase or an increase ranging from more than 0 fold to less than 5 fold)” and “A (A represents no increase or an increase ranging from more than 0 fold to less than 5 fold)”.
The corresponding values for `O=C(c1cccnc1)N1CCc2c(c(-c3ncccn3)nn2Cc2ccccc2F)C1` [Compound I-54] are “A (A represents no increase or an increase ranging from more than 0 fold to less than 5 fold)” and “A (A represents no increase or an increase ranging from more than 0 fold to less than 5 fold)”.
For `O=S(=O)(c1ccccc1)N1CCc2c(c(-c3ncccn3)nn2Cc2ccccc2F)C1` [Compound I-53, 1-(2-fluorobenzyl)-5-(phenylsulfonyl)-3-(pyrimidin-2-yl)-4,5,6,7-tetrahydro-1H-pyrazolo[4,3-c]pyridine], in that order: “A (A represents no increase or an increase ranging from more than 0 fold to less than 5 fold)” and “A (A represents no increase or an increase ranging from more than 0 fold to less than 5 fold)”.
Turning to `COC(=O)N(Cc1ccccc1F)c1c(N)nc(-c2nn(Cc3ccccc3F)c3c2CCCC3)nc1NCc1ccccc1F` [Compound I-24], the “Increase … at 10 μM in HEK Assay” value was “A (A represents no increase or an increase ranging from more than 0 fold to less than 5 fold)” and the “Increase … at 30 μM in HEK Assay” value is reported as “A (A represents no increase or an increase ranging from more than 0 fold to less than 5 fold)”.
Take `O=C1CCCc2c1c(-c1ncccn1)nn2Cc1ccccc1F` [Compound I-21]: the “Increase … at 10 μM in HEK Assay” value was “A (A represents no increase or an increase ranging from more than 0 fold to less than 5 fold)” and the “Increase … at 30 μM in HEK Assay” value is “A (A represents no increase or an increase ranging from more than 0 fold to less than 5 fold)”.
Turning to `CC(=O)N1CCc2c(c(-c3ncccn3)nn2Cc2ccccc2F)C1` [Compound I-52, 1-(1-(2-fluorobenzyl)-3-(pyrimidin-2-yl)-6,7-dihydro-1H-pyrazolo[4,3-c]pyridin-5(4H)-yl)ethanone], the “Increase … at 10 μM in HEK Assay” value is reported as “A (A represents no increase or an increase ranging from more than 0 fold to less than 5 fold)” and the “Increase … at 30 μM in HEK Assay” value is “A (A represents no increase or an increase ranging from more than 0 fold to less than 5 fold)”.
On to `Nc1nc(N)nc(-c2nn(Cc3ccccc3F)c3c2CCC3)n1` [Compound I-4], for which the “Increase … at 10 μM in HEK Assay” value is listed as “A (A represents no increase or an increase ranging from more than 0 fold to less than 5 fold)” and the “Increase … at 30 μM in HEK Assay” value was “A (A represents no increase or an increase ranging from more than 0 fold to less than 5 fold)”.
Regarding `CC1(C)CCc2c(c(-c3ncccn3)nn2Cc2ccccc2F)C1` [Compound I-17], the “Increase … at 10 μM in HEK Assay” value is “B (B represents an increase ranging from 5 fold to less than 10 fold)” and the “Increase … at 30 μM in HEK Assay” value is “A (A represents no increase or an increase ranging from more than 0 fold to less than 5 fold)”.
As for `N#Cc1cccc(Cn2nc(-c3ncccn3)c3c2CCCC3)c1` [Compound I-9], the “Increase … at 10 μM in HEK Assay” value was “A (A represents no increase or an increase ranging from more than 0 fold to less than 5 fold)” and the “Increase … at 30 μM in HEK Assay” value is on record as “B (B represents an increase ranging from 5 fold to less than 10 fold)”.
With `N#Cc1ccccc1Cn1nc(-c2ncccn2)c2c1CCCC2` [Compound I-8], the “Increase … at 10 μM in HEK Assay” value is “C (C represents an increase ranging from 10 fold to less than 20 fold)” and the “Increase … at 30 μM in HEK Assay” value is “D (D represents an increase ranging from 20 fold to less than 50 fold)”.
The corresponding values for `Fc1ccccc1Cn1nc(-c2cccnc2)c2c1CCCC2` [Compound I-48, 1-(2-fluorobenzyl)-3-(pyridin-3-yl)-4,5,6,7-tetrahydro-1H-indazole] are “A (A represents no increase or an increase ranging from more than 0 fold to less than 5 fold)” and “A (A represents no increase or an increase ranging from more than 0 fold to less than 5 fold)”.
`Fc1cccc(Cn2nc(-c3ncccn3)c3c2CCCC3)c1` [Compound I-7]: the “Increase … at 10 μM in HEK Assay” value is listed as “C (C represents an increase ranging from 10 fold to less than 20 fold)” and the “Increase … at 30 μM in HEK Assay” value is recorded as “D (D represents an increase ranging from 20 fold to less than 50 fold)”.
For `Fc1ccc(Cn2nc(-c3ncccn3)c3c2CCCC3)cc1` [Compound I-6], the “Increase … at 10 μM in HEK Assay” value is “A (A represents no increase or an increase ranging from more than 0 fold to less than 5 fold)” and the “Increase … at 30 μM in HEK Assay” value is recorded as “A (A represents no increase or an increase ranging from more than 0 fold to less than 5 fold)”.
As for `Fc1ccccc1Cn1nc(-c2ncccn2)c2c1CCC2` [Compound I-2], the “Increase … at 10 μM in HEK Assay” value was “C (C represents an increase ranging from 10 fold to less than 20 fold)” and the “Increase … at 30 μM in HEK Assay” value is on record as “D (D represents an increase ranging from 20 fold to less than 50 fold)”.

The values above are taken from patent publication US20130178475A1, “sGC STIMULATORS” (IRONWOOD PHARMACEUTICALS, INC., priority 2010, published 2013).
